Test results as given in US20040014215A1, “Synchronised arabidopsis cell suspensions and uses thereof” (priority 2000, published 2004).

Legend:
[1] = tested on: Arabidopsis cell suspension culture MM1; experiment: Aphidicolin (4.16 μg/ml, 21.5 hrs) block/release of MM1: proportion of G1, S and G2 cells by flow cytometry; format: cell-based, Arabidopsis thaliana
Procedure: Arabidopsis cell suspension culture MM1 (DSM 13563) was used for synchronisation experiments. The suspension culture was maintained by sub-culturing weekly 10 ml into 200 ml of fresh MSS-medium (MS-salt, 3% sucrose, 0.5 mg/l NAA, 0.05 mg/l kinetin) which is cultured in 500 ml narrow neck Erlenmeyer flasks, of which the opening is covered with double layer of aluminium foil and loosely covered with Saran wrap and which are placed on a GYROTORY® Shaker (New Brunswick Scientific). The cell suspension culture was grown under continuous light conditions (24 hrs a day); Philips lamps were used with the specification TLD HF 50W/840; light level is in average 1300 Lux and the cell suspension culture is rotated at 120 rpm at a temperature varying between 23-25° C. To arrest cells reversibly in late G1/early S-phase, cells were blocked with aphidicolin according to Nagata et al. 1992 (with slight modifications), 40 ml of an early stationary phase cell suspension culture was subcultured into 200 ml MSS-medium, 4.16 μg/ml aphidicolin was added to block cells at the end of G1/early S-phase, and the culture was incubated at 23° C., 120 rpm in the conditions as described above for MM1, for a period of 21.5 hrs. To remove aphidicolin, cells were washed through a nylon mesh (mesh size 47 μm) with 11 MSS-medium by vigorously shaking and resuspended in MSS-medium. The cells were vigorously shaken, for a washing time of about 14 min, and then centrifuged at 150Orpm for 1 min (387 rcf) with the brake switched off.
The level of synchronicity of the Arabidopsis cell suspension culture MM1 was analysed by flow cytometry. The cell pellet from 5 ml of cell suspension culture was frozen in liquid nitrogen. To analyse the DNA content, the High Resolution Kit for Plant ploidy analysis (Type P) (Partec, Cat. No. 06-5-4004) was used, containing solution A (to release cell nuclei) and solution B (to stain DNA with DAPI). A sample of the frozen cell pellet was transferred into a small petri-dish (5 cm diameter), 150 μl of solution A was added, and the sample was carefully chopped with vertical motion of a sharp razor blade. An additional 150 μl of solution A was added, the cell suspension pipetted up and down for several time before leaving for approximately 2 min at RT. The released cell nuclei were filtered through a 50 μm nylon mesh (Partec, CellTrics 50 μm, Cat. No. 06-4-2317) and 1 ml of solution B was added to the filtrate. On average 8200 particles were counted with a flow cytometer (PASIII; Partec GmbH, Germany), using HBO lamp excitation (Partec, mercury lamp HBO 100 long life, 100W) and detection of emission using a blue filter. Cell cycle phases were analysed using Multicycle for Windows (Phoenix Flow Systems, San Diego, Calif.). Flow cytometry results are not corrected for the mitotic cells (which are not measured by this method).

cell cycle = details: phase of the cell cycle at which cells are arrested; cited from earlier work

SMILES: C[C@@]1(CO)[C@H](O)CC[C@@]2(C)[C@H]1CC[C@H]1C[C@@H]3C[C@@]12CC[C@]3(O)CO [aphidicolin]
- G1 (%) MM1 ([1]; 0 h after aphidicolin removal): 50.6%
- G2 (%) MM1 ([1]; 0 h after aphidicolin removal): 19.3%
- S (%) MM1 ([1]; 0 h after aphidicolin removal): 30.1%
- G1 (%) MM1 ([1]; 1 h after aphidicolin removal): 23.7%
- G2 (%) MM1 ([1]; 1 h after aphidicolin removal): 11.4%
- S (%) MM1 ([1]; 1 h after aphidicolin removal): 64.9%
- G1 (%) MM1 ([1]; 2 h after aphidicolin removal): 23.8%
- G2 (%) MM1 ([1]; 2 h after aphidicolin removal): 11.4%
- S (%) MM1 ([1]; 2 h after aphidicolin removal): 64.8%
- G1 (%) MM1 ([1]; 3 h after aphidicolin removal): 27.2%
- G2 (%) MM1 ([1]; 3 h after aphidicolin removal): 10.4%
- S (%) MM1 ([1]; 3 h after aphidicolin removal): 62.5%
- G1 (%) MM1 ([1]; 4 h after aphidicolin removal): 23.2%
- G2 (%) MM1 ([1]; 4 h after aphidicolin removal): 44.8%
- S (%) MM1 ([1]; 4 h after aphidicolin removal): 32%
- G1 (%) MM1 ([1]; 5 h after aphidicolin removal): 19.9%
- G2 (%) MM1 ([1]; 5 h after aphidicolin removal): 63.8%
- S (%) MM1 ([1]; 5 h after aphidicolin removal): 16.3%
- G1 (%) MM1 ([1]; 6 h after aphidicolin removal): 16.1%
- G2 (%) MM1 ([1]; 6 h after aphidicolin removal): 83.9%
- S (%) MM1 ([1]; 6 h after aphidicolin removal): 0%
- G1 (%) MM1 ([1]; 7 h after aphidicolin removal): 13.8%
- G2 (%) MM1 ([1]; 7 h after aphidicolin removal): 85.7%
- S (%) MM1 ([1]; 7 h after aphidicolin removal): 0.5%
- G1 (%) MM1 ([1]; 8 h after aphidicolin removal): 10.9%
- G2 (%) MM1 ([1]; 8 h after aphidicolin removal): 88.8%
- S (%) MM1 ([1]; 8 h after aphidicolin removal): 0.3%
- G1 (%) MM1 ([1]; 9 h after aphidicolin removal): 11.1%
- G2 (%) MM1 ([1]; 9 h after aphidicolin removal): 88.9%
- S (%) MM1 ([1]; 9 h after aphidicolin removal): 0%
- G1 (%) MM1 ([1]; 10 h after aphidicolin removal): 10.8%
- G2 (%) MM1 ([1]; 10 h after aphidicolin removal): 89.2%
- S (%) MM1 ([1]; 10 h after aphidicolin removal): 0%
- G1 (%) MM1 ([1]; 11 h after aphidicolin removal): 13.4%
- G2 (%) MM1 ([1]; 11 h after aphidicolin removal): 86.6%
- S (%) MM1 ([1]; 11 h after aphidicolin removal): 0%
- G1 (%) MM1 ([1]; 12 h after aphidicolin removal): 15.1%
- G2 (%) MM1 ([1]; 12 h after aphidicolin removal): 84.1%
- S (%) MM1 ([1]; 12 h after aphidicolin removal): 0.8%
- G1 (%) MM1 ([1]; 13 h after aphidicolin removal): 22.9%
- G2 (%) MM1 ([1]; 13 h after aphidicolin removal): 77.1%
- S (%) MM1 ([1]; 13 h after aphidicolin removal): 0%
- G1 (%) MM1 ([1]; 14 h after aphidicolin removal): 31.5%
- G2 (%) MM1 ([1]; 14 h after aphidicolin removal): 68.5%
- S (%) MM1 ([1]; 14 h after aphidicolin removal): 0%
- G1 (%) MM1 ([1]; 15 h after aphidicolin removal): 38.6%
- G2 (%) MM1 ([1]; 15 h after aphidicolin removal): 61.3%
- S (%) MM1 ([1]; 15 h after aphidicolin removal): 0.2%
- G1 (%) MM1 ([1]; 16 h after aphidicolin removal): 33.4%
- G2 (%) MM1 ([1]; 16 h after aphidicolin removal): 59.6%
- S (%) MM1 ([1]; 16 h after aphidicolin removal): 6.9%
- G1 (%) MM1 ([1]; 17 h after aphidicolin removal): 36.3%
- G2 (%) MM1 ([1]; 17 h after aphidicolin removal): 57.5%
- S (%) MM1 ([1]; 17 h after aphidicolin removal): 6.2%
- G1 (%) MM1 ([1]; 18 h after aphidicolin removal): 35.7%
- G2 (%) MM1 ([1]; 18 h after aphidicolin removal): 56.1%
- S (%) MM1 ([1]; 18 h after aphidicolin removal): 8.2%
- G1 (%) MM1 ([1]; 19 h after aphidicolin removal): 38.4%
- G2 (%) MM1 ([1]; 19 h after aphidicolin removal): 55.6%
- S (%) MM1 ([1]; 19 h after aphidicolin removal): 6%
- G1 (%) MM1 ([1]; 20 h after aphidicolin removal): 41.1%
- G2 (%) MM1 ([1]; 20 h after aphidicolin removal): 48.8%
- S (%) MM1 ([1]; 20 h after aphidicolin removal): 10%
- cell cycle arrest (cell cycle): G1/early S
